Data as given in patent publication US5084442A, “Cyclic growth hormone releasing factor analogs and method for the manufacture thereof” (Hoffmann-La Roche Inc., priority 1988, dated 1992).

Each compound was assayed on dispersed rat anterior pituitary cells (release of rat growth hormone) (assay: In Vitro (Cell Dispersion) Assay of GRF: growth hormone release measured by RIA). Settings: growth hormone release from cultured rat pituitary cells, 4 hours of incubation, peptide 0.8 to 200 fmol per ml; compared with natural GRF(1-44)-NH2 (= 1.0).
Assay type: cell-based, rat (Sprague-Dawley)
Description: In Vitro (Cell Dispersion) Assay of GRF
Pituitaries from 30-40 male Sprague-Dawley rats (175 g) were removed aseptically after decapitation. The anterior lobes were collected, washed 3 times in sterile Hepes buffer (0.025 M) (pH 7.35) and dispersed at 37° in 20-30 ml Hepes buffer (pH 7.35) containing collagenase (4 mg per ml) and Dispase (Protease grade II, 2 mg per ml). After gentle 100-110 min vortexing and trituration by Pasteur pipette, the dispersed cells were separated by centrifugation (150×g, 4 min) and re-suspended in Hepes buffer containing neuraminidase ([…]), and 200 µg/ml ethylenediaminetetraacetic acid (EDTA) disodium salt, pH 7.35, for 10 min.
The cells were washed twice with plating medium and plated on multiwell-plates (1.5×10^5 cells per ml) using the following defined medium: F-12/DMEM/BGJ (6:3:1) (Gibco: 430-1700/430-1600/320-2591) with 2 g BSA/1., 2.38 g Hepes/1.50 mg PSN antibiotic mixture (Gibco Laboratories), 10 mg/l transferring (Sigma T2252) with 1.83 g NaHCO3 /l (Baker 3506). The medium in each well was supplemented either with a sample of the novel GRF peptide or natural GRF(1-44)-NH2 at concentrations ranging from 0.8 to 200 fmol per ml of medium. Control wells contained no supplement. Plating was done with this medium added with 2% fetal calf serum to ensure rapid fixation of the cells.
On the fourth day, the cells were washed twice with the defined medium without fetal calf serum. Finally, 900 μl of defined medium was added to each well plus 100 μl of the same medium containing each individual treatment, in triplicate. After 4 hours of incubation the medium was collected and diluted as required to conduct radioimmunoassay (RIAs) for rat growth hormone.
RIAs for rat growth hormone were conducted using Sinha's anti-murine GH immune serum and procedures according to the National Pituitary Agency using protein A to precipitate antibody antigen complex.

Compound	RELATIVE POTENCY
Cyclo^8,12;21,25 [N-MethylTyr^1,D-Ala^2, Asp^8, Ala^15 ]-GRF(1-29)-NH2	0.61
Cyclo^21,25 [desNH2 Tyr^1,Ala^15 ]-GRF(1-29)-NH2	1.47
Cyclo^8,12;21,25 [Asp^8, Ala^15 ]-GRF(1-29)-NH2	2.24
Cyclo^21,25 [Ala^15 ]-GRF(1-29)-NH2 [Cyclo^21,25 --[Ala^15]--GRF(1-29)--NH2]	1.27
Cyclo^21,25 [D-Ala^2, Ala^15 ]-GRF(1-29)-NH2	1.99
CC[C@H](C)[C@H](NC(=O)[C@H](C)NC(=O)[C@H](CC(=O)O)NC(=O)[C@H](C)NC(=O)[C@@H](N)Cc1ccc(O)cc1)C(=O)N[C@@H](Cc1ccccc1)C(=O)N[C@H](C(=O)N[C@@H](CC(N)=O)C(=O)N[C@@H](CO)C(=O)N[C@@H](Cc1ccc(O)cc1)C(=O)N[C@@H](CCCNC(=N)N)C(=O)N[C@@H](CCCCN)C(=O)N[C@H](C(=O)N[C@@H](CC(C)C)C(=O)NCC(=O)N[C@@H](CCC(N)=O)C(=O)N[C@@H](CC(C)C)C(=O)N[C@@H](CO)C(=O)N[C@@H](C)C(=O)N[C@@H](CCCNC(=N)N)C(=O)N[C@@H](CCCCN)C(=O)N[C@@H](CC(C)C)C(=O)N[C@@H](CC(C)C)C(=O)N[C@@H](CCC(N)=O)C(=O)N[C@@H](CC(=O)O)C(=O)N[C@H](C(=O)N[C@@H](CCSC)C(=O)N[C@@H](CO)C(=O)N[C@@H](CCCNC(=N)N)C(=O)N[C@@H](CCC(N)=O)C(=O)N[C@@H](CCC(N)=O)C(=O)NCC(=O)N[C@@H](CCC(=O)O)C(=O)N[C@@H](CO)C(=O)N[C@@H](CC(N)=O)C(=O)N[C@@H](CCC(N)=O)C(=O)N[C@@H](CCC(=O)O)C(=O)N[C@@H](CCCNC(=N)N)C(=O)NCC(=O)N[C@@H](C)C(=O)N[C@@H](CCCNC(=N)N)C(=O)N[C@@H](C)C(=O)N[C@@H](CCCNC(=N)N)C(=O)N[C@@H](CC(C)C)C(N)=O)[C@@H](C)CC)C(C)C)[C@@H](C)O [GRF(1-44)--NH2, GRF(1-44)-NH2, reference compound]	1.0
Cyclo^21,21 [N-MethylTyr^1, D-Ala^2, Ala^15 ]-GRF(1-29)-NH2	1.92
